Assay results reported in publication PMC12518634, “The noncanonical function of liver-type phosphofructokinase potentiates the efficacy of HDAC inhibitors in cancer” (Signal Transduction and Targeted Therapy, 2025).
Like-named read-outs stand apart in the source and are kept apart here.

How the values were obtained:
783C-6 xenografts = test: Cell-derived xenograft tumor growth; type: in vivo; details: mice xenografted with PFKL high-expressed 783C-6 cells, n = 5 mice per group, Fig. 2b
Protocol: (§1) For cell-derived xenograft (CDX) models, tumor cells were resuspended in saline and combined with an equal volume of Matrigel. A total of 1 × 10^6 cells in a 0.1 ml mixture were injected subcutaneously into the right flank of 6-week-old male nude mice. Once the tumor volume reached approximately 100 mm³, the mice were randomly grouped and treated with drugs or saline. The tumor volume was measured every 3 days and calculated via the following formula: tumor volume = (length × width^2) × 0.5. When the tumor volume reached 1500 mm³, the mice were euthanized via CO2 asphyxiation. The tumor tissues were harvested for further study.

HuCCT1 xenografts = test: Cell-derived xenograft tumor growth; type: in vivo; details: mice xenografted with PFKL low-expressed HuCCT1 cells; n = 5 mice per group; Fig. 2b, c
Protocol: as §1

TFK1 xenografts = test: Cell-derived xenograft tumor growth; type: in vivo; details: mice xenografted with PFKL high-expressed TFK1 cells; n = 5 mice per group; Fig. 2b, c
Protocol: as §1

SK-CHA-1 xenografts = test: Cell-derived xenograft tumor growth; type: in vivo; details: mice xenografted with PFKL high-expressed SK-CHA-1 cells; n = 5 mice per group; Fig. 2b, c
Protocol: as §1

1405R3 xenografts = test: Cell-derived xenograft tumor growth; type: in vivo; details: mice xenografted with PFKL low-expressed 1405R3 cells; n = 5 mice per group; Fig. 2b, c
Protocol: as §1

HuCCT1 cells = test: Cell viability assay (CellTiter-Glo, 72 h), GI50; type: cell-based; details: Homo sapiens
Protocol: (§2) Cell viability was assessed using the CellTiter-Glo luminescent cell viability assay (Vazyme, DD1101) following the manufacturer’s instructions. Briefly, 5000 cells per well were seeded into a 96-well white bottom permeable plate. Different concentrations of drugs were added to each well. After 72 h of treatment, a mixture of CellTier reagent and serum-free culture medium was prepared at a 1:1 ratio, and 100 μL of the mixture was added to each well. After incubation at 37 °C for 15 min, the luminescence was measured using a microplate reader (Synergy H1, Biotek). All the experiments were conducted in triplicate. Cell viability (relative luminescence) was defined as the luminescence of the drug treatment relative to that of the vehicle control.

SK-CHA-1 cells = test: Cell viability assay (CellTiter-Glo, 72 h), GI50; type: cell-based; details: Homo sapiens, Fig. 1b
Protocol: as §2

RBE cells = test: Cell viability assay (CellTiter-Glo, 72 h), GI50; type: cell-based; details: Homo sapiens, Fig. 1b
Protocol: as §2

783C-6 cells = test: Cell viability assay (CellTiter-Glo, 72 h), GI50; type: cell-based; details: Homo sapiens
Protocol: as §2

1405R3 cells = test: Cell viability assay (CellTiter-Glo, 72 h), GI50; type: cell-based; details: Homo sapiens, Fig. 1b
Protocol: as §2

1405R3 = test: High-throughput drug screen, CellTiter-Glo viability, 72 h; type: cell-based, human; design: AUC: scale not given here; details: for EC50: Homo sapiens, 72 h
In short: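 Responses are drug sensitivity scores (efficacy cutoff ≥10), fitted from CellTiter-Glo luminescence. Each drug was given at five concentrations (10 to 0.001 μM, tenfold steps) in duplicate for 72 h. Cells were plated at 3000/well 24 h before dosing.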

783C-6 = test: as above; type: cell-based, human; design: AUC: scale not given here; details: for EC50: Homo sapiens, 72 h
In short: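 Cholangiocarcinoma cells were seeded at 3000/well in 384-well plates and dosed after 24 h. Drugs were tested at 10, 1, 0.1, 0.01 and 0.001 μM in duplicate for 72 h, with viability read by CellTiter-Glo luminescence.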

CC11 PDX tumors = test: CCA patient-derived xenograft tumor growth; type: in vivo; details: n = 5 mice per group, Fig. 2d, e
Source text: (§3) For patient-derived xenograft (PDX) models, fresh tumor samples were cut into small pieces of approximately 1 mm³ and subcutaneously transplanted into the flanks of NSG mice (P1 generation). After 2 to 3 months of tumor growth, the established PDX tumors were transplanted into subsequent generations (P2-Pn) under the skin of nude or NSG mice. When the tumors reached approximately 100 mm^3, the mice were randomly allocated to different groups and treated with HDAC inhibitors or saline. Tumor volume calculation, euthanasia of the mice, and specimen preparation followed the procedures of the CDX model.

CC51 PDX tumors = test: CCA patient-derived xenograft tumor growth; type: in vivo; details: n = 5 mice per group, Fig. 2d, e
Source text: as §3

CC16 PDX tumors = test: CCA patient-derived xenograft tumor growth; type: in vivo; details: n = 5 mice per group, Fig. 2d, e
Source text: as §3

CC57 PDX tumors = test: CCA patient-derived xenograft tumor growth; type: in vivo; details: n = 5 mice per group, Fig. 2d, e
Source text: as §3

CC56 PDX tumors = test: CCA patient-derived xenograft tumor growth; type: in vivo; details: n = 5 mice per group, Fig. 2d, e
Source text: as §3

CC52 PDX tumors = test: CCA patient-derived xenograft tumor growth; type: in vivo; details: n = 5 mice per group, Fig. 2d, e
Source text: as §3

[1] = HuCCT-1, 72 h, HuCCT1, 72 h, CellTiter-Glo, Fig. 1b
[2] = HuCCT-1, 72 h, HuCCT1 vector, 72 h, Fig. 1j
[3] = HuCCT-1, 72 h, HuCCT1 with PFKL overexpression (ovPFKL), 72 h, Fig. 1j
[4] = 783C-6 after interference with LHCGR si-1, Fig. 1f
[5] = 783C-6 after interference with LHCGR si-2, Fig. 1f
[6] = 783C-6 after interference with NFIA si-1, Fig. 1f
[7] = 783C-6 after interference with NFIA si-2, Fig. 1f
[8] = 783C-6 after interference with PFKFB1 si-1, Fig. 1f
[9] = 783C-6 after interference with PFKFB1 si-2, Fig. 1f
[10] = 783C-6 after interference with PFKL si-1, Fig. 1f
[11] = 783C-6 after interference with PFKL si-2, Fig. 1f
[12] = 783C-6 expressing sgNC, Fig. 1g
[13] = 783C-6 expressing sgPFKL-1, Fig. 1g
[14] = 783C-6 expressing sgPFKL-2, Fig. 1g

SMILES | tumor growth (783C-6 xenografts) | tumor growth (HuCCT1 xenografts) | tumor growth (TFK1 xenografts) | tumor growth (SK-CHA-1 xenografts) | tumor growth (1405R3 xenografts) | GI50 (HuCCT1 cells; [1]) | GI50 (HuCCT1 cells; [2]) | GI50 (HuCCT1 cells; [3]) | GI50 (SK-CHA-1 cells) | GI50 (RBE cells) | GI50 (783C-6 cells; 783C-6, CellTiter-Glo, Fig. 1b) | GI50 (783C-6 cells; [4]) | GI50 (783C-6 cells; [5]) | GI50 (783C-6 cells; [6]) | GI50 (783C-6 cells; [7]) | GI50 (783C-6 cells; [8]) | GI50 (783C-6 cells; [9]) | GI50 (783C-6 cells; [10]) | GI50 (783C-6 cells; [11]) | GI50 (783C-6 cells; [12]) | other results
C/C=C1\NC(=O)[C@H]2CSSCC/C=C/[C@H](CC(=O)N[C@H](C(C)C)C(=O)N2)OC(=O)[C@H](C(C)C)NC1=O [Romidepsin, romidepsin] | markedly inhibited tumor growth | limited efficacy | markedly inhibited tumor growth | markedly inhibited tumor growth | limited efficacy | 83.4 nM | 74 nM | 3.96 nM | 5.5 nM | 115 nM | 2.55 nM | 3.8 nM | 3.4 nM | 2.5 nM | 2.8 nM | 3.1 nM | 2.9 nM | 38.8 nM | 11.4 nM | 2.9 nM | GI50 (HuCCT1 cells; HuCCT-1, HuCCT1, pretreated with peptide or NS for 12 h, then romidepsin 72 h, Fig. 5g): 93.5 nM; GI50 (783C-6 cells; 783C-6, romidepsin alone or combined with PFKL enzymatic activity modifier, Fig. 3b second table): 4.3 nM; GI50 (783C-6 cells; 783C-6, romidepsin alone or combined with glycolysis inhibitors, Fig. 3b first table): 3.49 nM; GI50 (783C-6 cells; [13]): 34.8 nM; GI50 (783C-6 cells; [14]): 15.3 nM; GI50 (1405R3 cells): 64.4 nM; AUC (1405R3): 228.5; DSS (1405R3): 26.8; MIN (1405R3): 0; EC50 (1405R3): 51.3 nM; AUC (783C-6): 354.8; DSS (783C-6): 43.7; MIN (783C-6): 0; EC50 (783C-6): 2.7 nM; PDX tumor growth compared to the control group (CC11 PDX tumors): notably attenuated the growth; PDX tumor growth compared to the control group (CC51 PDX tumors): no significant disparities; PDX tumor growth compared to the control group (CC16 PDX tumors): notably attenuated the growth; PDX tumor growth compared to the control group (CC57 PDX tumors): notably attenuated the growth; PDX tumor growth compared to the control group (CC56 PDX tumors): no significant disparities; PDX tumor growth compared to the control group (CC52 PDX tumors): notably attenuated the growth
Cc1[nH]c2ccccc2c1CCNCc1ccc(/C=C/C(=O)NO)cc1 [Panobinostat, panobinostat] | markedly inhibited tumor growth | limited efficacy | markedly inhibited tumor growth | markedly inhibited tumor growth | limited efficacy | 244 nM | 285 nM | 31.2 nM | 72.2 nM | 276 nM | 37.4 nM | 48 nM | 65.5 nM | 56.6 nM | 51.5 nM | 59 nM | 50.5 nM | 590 nM | 276 nM | 52.4 nM | GI50 (783C-6 cells; [13]): 467 nM; GI50 (783C-6 cells; [14]): 250 nM; GI50 (783C-6 cells; 783C-6 siNC, Fig. 1f): 61.4 nM; GI50 (1405R3 cells): 162 nM; AUC (1405R3; 1405R3 DSRT analysis, area under the dose-response curve): 218.4; DSS (1405R3; 1405R3 DSRT analysis, drug sensitivity score): 25.4; MIN (1405R3; 1405R3 DSRT analysis, lower asymptote of fitted dose-response curve): 0; EC50 (1405R3; 1405R3 DSRT analysis, CellTiter-Glo viability, fitted dose-response curve, Min.Conc.tested 1, Max.Conc.tested 10000, GI50, read-out: EC50): 64.9 nM; DSS (783C-6; 783C-6 cells, DSS of DSRT analysis): 31.3; AUC (783C-6; 783C-6 cells, area under the dose-response curve): 262.4; MIN (783C-6; 783C-6 cells, minimum of dose-response curve): 0.3; EC50 (783C-6; read-out: EC50): 22.9 nM; PDX tumor growth compared to the control group (CC11 PDX tumors): notably attenuated the growth; PDX tumor growth compared to the control group (CC51 PDX tumors): no significant disparities; PDX tumor growth compared to the control group (CC16 PDX tumors): notably attenuated the growth; PDX tumor growth compared to the control group (CC57 PDX tumors): notably attenuated the growth; PDX tumor growth compared to the control group (CC56 PDX tumors): no significant disparities; PDX tumor growth compared to the control group (CC52 PDX tumors): notably attenuated the growth
